The text below walks through data of paper PMC5570900, “Exploiting a novel conformational switch to control innate immunity mediated by complement protein C3a” (Nature Communications, 2017).

Structures are written as SMILES.

The target in one data set is T1, C5aR (Homo sapiens, UniProt P21730).
T1 construct: endogenous in cells; host or cells: primary human monocyte-derived macrophages (HMDMs)
T1 sequence (P21730 1-350): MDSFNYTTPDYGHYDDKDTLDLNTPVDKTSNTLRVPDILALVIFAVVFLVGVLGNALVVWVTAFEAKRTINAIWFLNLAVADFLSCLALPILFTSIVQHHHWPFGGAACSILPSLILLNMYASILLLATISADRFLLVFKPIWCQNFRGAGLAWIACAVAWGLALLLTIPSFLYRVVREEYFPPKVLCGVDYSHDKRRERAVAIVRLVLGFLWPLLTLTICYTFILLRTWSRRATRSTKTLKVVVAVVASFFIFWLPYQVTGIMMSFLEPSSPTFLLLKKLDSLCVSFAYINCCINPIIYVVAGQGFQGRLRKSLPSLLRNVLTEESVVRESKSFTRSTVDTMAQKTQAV
Nature of the data set: [125I]-hC5a competition binding on HMDMs. Conditions: [125I]-hC5a 25 pM. How it is done: (§1) Receptor binding was performed by ligand competition with labelled 80 pM [^125I]-C3a or 25 pM [^125I]-C5a (2200 Ci/mmol; Perkin Elmer, Torrance, CA, USA) on HMDMs (1.2 × 10^6 cells/ml). HMDMs were treated with [^125I]-C3a or [^125I]-C5a ± various concentrations of unlabelled C3a/C5a or experimental ligands were diluted with assay buffer (50 mM Tris, 3 mM MgCl2, 0.1 mM CaCl2, 0.5% (w/v) BSA, pH 7.4) for 60 min at room temperature. Unbound [^125I]-C3a or [^125I]-C5a was removed by filtration through glass microfibre filter GF/B (Whatman Iner. Ltd, England) and washed three times with cold buffer (50 mM Tris-HCl pH 7.4). Bound [^125I]-C3a or [^125I]-C5a were assessed by scintillation counting on Microbeta counter. Specific binding was defined as the difference between total binding and nonspecific binding as determined in the presence of 1 μM unlabelled C3a or C5a[4].

The test system of data set [1] is wild-type human HEK293 cells (C3aR−/−). The data set can be described thus: Intracellular Ca2+ release in wild-type HEK293 cells. It counts as cell-based.
Another data set is described as follows: Rat plasma stability. The note with it: neat rat plasma, 37 °C, over 4 h (C3a up to 10 min). It counts as in vitro ADME. The procedure: (§2) For plasma stability studies, C3a and experimental compounds (10 μL, 1 mM in DMSO) were added to neat rat plasma (190 μL) and heated to 37 °C in a circulating water bath. Aliquots (20 µL) were collected at time points (0, 2, 5 and 10 min for C3a; 0, 5, 15, 30, 60, 120 and 240 min for other test compounds) and added directly to MeCN/H2O (80 µL, 9:1). The samples were centrifuged at 13,000 g for 3 min before supernatants were isolated and analyzed for test compound degradation via LC-MS. For liver microsomal stability studies, commercially available rat liver microsomes from Life Technologies, GIBCO were used. In brief, microsomes stored at −80 °C were slowly defrosted on ice. Test compounds (183 μL, 1 μM in 100 mM phosphate buffer pH 7.4 containing 0.1 % DMSO) were added to microsomes (5 μL) and NADPH (2 µL, 20 mM). Test solutions were heated in a circulating water bath at 37 °C for 5 min before additional cofactor NADPH (10 μL, 20 mM) was added. Aliquots (20 μL) were taken at time points (0, 5, 15, 30 and 60 min from the second addition of NADPH). Aliquots were added to MeCN/H2O (80 μL, 9:1) and centrifuged at 13,000 g for 3 min. Supernatants were analyzed for test compound degradation by LC-MSMS. Concentrations were plotted as a function of time on a semi-logarithmic graph. Rat plasma and microsomal activity was confirmed by rapid degradation of SLIGRL-NH2 (t1/2 < 5 min) in a parallel experiment.

The nature of data set [2]: Rat liver microsomal stability. The format is in vitro ADME. Conditions: rat liver microsomes, NADPH, 37 °C, over 1 h. The procedure:
as §2

Data set [3] concerns the target T2, C3aR (Homo sapiens, UniProt Q16581).
T2 sequence (Q16581 1-482): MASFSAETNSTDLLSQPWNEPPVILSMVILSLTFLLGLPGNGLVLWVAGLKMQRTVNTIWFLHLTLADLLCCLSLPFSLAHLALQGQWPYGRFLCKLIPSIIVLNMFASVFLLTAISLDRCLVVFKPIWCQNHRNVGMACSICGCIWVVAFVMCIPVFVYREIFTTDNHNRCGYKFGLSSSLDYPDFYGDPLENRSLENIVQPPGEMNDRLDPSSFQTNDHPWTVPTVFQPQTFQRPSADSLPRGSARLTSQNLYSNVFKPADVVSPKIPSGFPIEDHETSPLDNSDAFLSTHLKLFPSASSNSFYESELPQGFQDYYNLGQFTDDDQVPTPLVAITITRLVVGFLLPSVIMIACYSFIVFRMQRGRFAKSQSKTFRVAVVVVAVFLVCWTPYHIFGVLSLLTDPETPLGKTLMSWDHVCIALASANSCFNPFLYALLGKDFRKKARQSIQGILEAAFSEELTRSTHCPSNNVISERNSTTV
Nature of the data set: [125I]-hC3a competition binding on HMDMs. The note with it: [125I]-hC3a 80 pM. Further details: Concentration-dependent Ca^2+ release in human monocyte-derived macrophages (HMDMs); endogenous in cells; host or cells: primary human monocyte-derived macrophages (HMDMs). How it is done:
as §1

The target of data set [4] is T2, C3aR. Nature of the data set: Intracellular Ca2+ release in HEK293 cells transfected with C3aR. The format is cell-based. The arrangement: Concentration-dependent Ca^2+ release in human monocyte-derived macrophages (HMDMs); endogenous in cells; host or cells: primary human monocyte-derived macrophages (HMDMs).

Take `Cc1[nH]c(C(c2ccccc2)c2ccccc2)nc1C(=O)N[C@@H](CCCNC(=N)N)C(=O)O` [Compound 3]: the “C5aR binding by competition with [125I]-hC5a” value on C5aR is reported as “no binding”. In addition, the “Intracellular Ca2+ release” value was “did not induce Ca^2+ release” in data set [1] and “did induce Ca^2+ release” on C3aR [4] (HEK293 cells transfected with C3aR (C3aR+/+), compound alone). Besides, the “Stability in rat plasma” value in the data set “Rat plasma stability” is recorded as “remained intact”. For the same compound, the “Stability in rat liver microsomes” value in data set [2] is “much more stable than C3a”. In addition, the “C3aR binding by competition with [125I]-hC3a” value on C3aR [3] was “compete with ^125I-labelled C3a”.
With `N=C(N)NCCCC(NC(=O)c1ccc(C(c2ccccc2)c2ccccc2)s1)C(=O)O` (stereo not drawn) [Compound 6], the “C5aR binding by competition with [125I]-hC5a” value on C5aR is “no binding”. The “Intracellular Ca2+ release” value in data set [1] was “did not induce Ca^2+ release”. Also, the “Stability in rat plasma” value in the data set “Rat plasma stability” is “remained intact”. Also, in data set [2], the “Stability in rat liver microsomes” value is reported as “much more stable than C3a”. The “C3aR binding by competition with [125I]-hC3a” value at C3aR [3] was “compete with ^125I-labelled C3a”. Also, at C3aR [4] (C3aR-HEK293 cells, pre-treatment 30 min before C3a or 3), the “Effect on Ca2+ release induced by C3a or 3” value is “prevented”.
